Laboratory results published in US8871789B2, “Method of preventing or treating viral infection” (The United States of America, as represented by the …, priority 2010, dated 2014).
Like-named read-outs stand apart in the source and are kept apart here. Blank lines part the entries; values can stand above or below the molecule they belong to.

Key:
HSV-1 [1] = type: cell-based, Balb/c mice; conditions: 2 mM DMOG, 2 mM TCP or ACV, 48 hours; FIG. 11
Experimental: FIG. 18 is a dot plot showing latently infected ganglia that were explanted in the presence of DMSO, ACV (100 mM), or ML324 (50 mM) for 48 hrs. Viral yields were determined from one half of each ganglia at 48 hrs (DMSO, ACV, ML324) and from the other half of each ganglia after drug reversal for an additional 72 hrs (ACV-R, ML324-R) [Wilcoxon matched pairs signed rank test, ACV vs ACV-R n=8, ML324 vs ML324-R n=10]. Data are means±SEM.
FIG. 19 is a dot plot showing viral yields from HSV-1 latently infected trigeminal ganglia that were explanted in the presence of DMSO, or 2 mM DMOG or 50 mM ML324 for 48 hours (DMSO versus DMOG: P=0.0015, Wilcoxon matched-pairs signed rank test; n=12; DMSO versus ML324: P<0.0001; n=20). Data are means±SEM.
Viral yields decrease from HSV-1 latently infected ganglia explanted in the presence of LSD1 or JMJD2 inhibitors (FIG. 11). Balb/c mice were infected with 5×10^6 PFU HSV-1 (strain F) per eye after corneal scarification. Latently infected mice were sacrificed 45 days post clearance of the primary infection and trigeminal ganglia were rapidly explanted into culture in the presence of 2 mM DMOG, 2 mM TCP, or control (DMSO or ACV, acyclovir) for 48 hours. Post explant incubation, the ganglia were homogenized and briefly sonicated. The reactivated viral yield of each ganglia was determined by titering the clarified supernatant on Vero cells. Statistical comparisons were made using Wilcoxon signed rank test (paired ganglia) with a statistical significance of <0.05. Each data point was the result of a single ganglia divided and treated in the presence and absence of DMSO and DMOG or DMSO and TCP. Therefore, a Wilcoxon signed rank test was used to assess differences between each treated and untreated sample. The significant difference between DMSO control and DMOG was p=0.0018. This test used an exact p-value for small sample sizes with an a level of 0.05. n=20. Analyses were made using Prism (V5.0a) and are expressed as the mean+/−s.e.m.

HSV-1 [2] = type: cell-based, mouse; conditions: 100 mM ACV or 50 mM ML324, 48 hours
Experimental: FIG. 20 is a dot plot showing latently infected trigeminal ganglia that were explanted in the presence of DMSO, 100 mM ACV, or 50 mM ML324 for 48 hours. The total number of UL29+ neurons per ganglia is graphed, representing the number of neurons undergoing viral reactivation. Data are means±SEM.

HSV-1 [3] = experiment: Plaque assay of Vero cells infected with HSV-1; type: cell-based; set-up: # Plaques: dose or concentration left out as unconfirmed; conditions: 12 hours infection, then ACV or ML324 for 48 hours
Experimental: ML324 was ˜75-fold more efficient than DMOG. Additionally, ML324 (i) reduced viral yields in a dose-dependent manner (˜5 logs at 50 mM, FIG. 14); (ii) blocked viral IE gene transcription and reduced viral yields when cells were infected at high multiplicity of infection (MOI; FIGS. 15 and 16); and (iii) suppressed IE gene transcription, even when added at times after infection (>50% reduction at 2 hours after infection; FIG. 17). As further evidence for the efficacy of ML324, cells were infected with HSV to allow for a productive cycle of infection, followed by treatment with DMSO, ACV, or ML324.

JMJD2E = molecular target: T1, JMJD2E (Homo sapiens, UniProt B2RXH2); experiment: AlphaLISA assay, JMJD2E histone demethylase inhibition; type: biochemical
T1 sequence (B2RXH2 1-506): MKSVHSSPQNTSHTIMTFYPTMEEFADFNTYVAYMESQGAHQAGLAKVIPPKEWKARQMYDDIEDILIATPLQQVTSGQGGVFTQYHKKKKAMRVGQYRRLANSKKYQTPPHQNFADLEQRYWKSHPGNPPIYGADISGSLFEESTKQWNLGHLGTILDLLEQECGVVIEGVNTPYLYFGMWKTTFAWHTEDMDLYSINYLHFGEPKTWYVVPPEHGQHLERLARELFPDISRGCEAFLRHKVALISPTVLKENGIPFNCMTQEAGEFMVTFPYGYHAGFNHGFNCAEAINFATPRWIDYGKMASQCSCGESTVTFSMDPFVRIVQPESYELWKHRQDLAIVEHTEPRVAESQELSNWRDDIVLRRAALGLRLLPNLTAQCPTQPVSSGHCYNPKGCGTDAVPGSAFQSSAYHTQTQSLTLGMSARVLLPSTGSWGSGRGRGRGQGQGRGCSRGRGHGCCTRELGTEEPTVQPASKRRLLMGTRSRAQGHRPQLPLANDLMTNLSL

[4] = Table 2, JMJD2E, AlphaLISA, in triplicate, read-out: IC50
[5] = Table 3, JMJD2E, AlphaLISA, in triplicate, read-out: IC50

SMILES: N[C@@H]1C[C@H]1c1ccccc1 (racemic) [TCP, tranylcypromine]
viral yield from explanted latently infected ganglia (HSV-1 [1]): decreases

SMILES: Nc1nc2c(ncn2COCCO)c(=O)[nH]1 [ACV, acyclovir, reference compound]
isolated UL29+ neurons relative to DMSO (HSV-1 [2]): reduced number
# Plaques (HSV-1 [3]; MOI .001): 1
# Plaques (HSV-1 [3]; MOI .01): 8
viral yield from explanted latently infected ganglia (HSV-1 [1]): No viral yields

SMILES: O=C(O)c1ccnc2c(O)cccc12 [Compound 2]
IC50 (JMJD2E; [4]): 3070 nM

SMILES: CN(C)CCCNC(=O)c1ccc(-c2cnc3c(O)cccc3c2)cc1 [Compound 3]
IC50 (JMJD2E; [4]): 12000 nM

SMILES: O=C(c1ccc(-c2cc(O)c3ncccc3c2)cc1)N1CCNCC1 [Compound 5]
IC50 (JMJD2E; [4]): 1620 nM

SMILES: CN1CCN(C(=O)c2cccc(-c3cc(O)c4ncccc4c3)c2)CC1 [Compound 6]
IC50 (JMJD2E; [4]): 4270 nM

SMILES: O=C(NCCCN1CCNCC1)c1cccc(-c2cc(O)c3ncccc3c2)c1 [Compound 7]
IC50 (JMJD2E; [4]): 1240 nM

SMILES: CN(C)CC1CCN(C2CCN(C(=O)c3cccc(-c4cc(O)c5ncccc5c4)c3)CC2)CC1 [Compound 8]
IC50 (JMJD2E; [4]): 990 nM

SMILES: CN(C)CCCN1CCCN(C(=O)c2cccc(-c3cc(O)c4ncccc4c3)c2)C1 [Compound 9]
IC50 (JMJD2E; [4]): 1520 nM

SMILES: CN1CCN(c2cnc3c(O)ccc(C(=O)O)c3c2)CC1 [Compound 10]
IC50 (JMJD2E): 2250 nM

SMILES: O=C(O)c1ccc(O)c2ncc(C3CCNCC3)cc12 [Compound 12]
IC50 (JMJD2E): 1330 nM

SMILES: O=C(O)c1ccc(O)c2ncc(N3CC4CNCC4C3)cc12 (stereo not shown) [Compound 17]
IC50 (JMJD2E): 1470 nM

SMILES: CN(C)CCCNC(=O)c1ccc(-c2cnc3c(O)ccc(C(=O)O)c3c2)cc1 [Compound 25]
IC50 (JMJD2E; [5]): 1410 nM

SMILES: NC(=O)c1cccc(-c2cnc3c(O)ccc(C(=O)O)c3c2)c1 [Compound 28]
IC50 (JMJD2E): 4900 nM

Next, values leading:

IC50 (JMJD2E): 1740 nM
SMILES: O=C(O)c1ccc(O)c2ncc(N3CCOCC3)cc12 [Compound 11]

IC50 (JMJD2E): 1570 nM
SMILES: NC1CCN(c2cnc3c(O)ccc(C(=O)O)c3c2)CC1 [Compound 13]

IC50 (JMJD2E): 2240 nM
SMILES: O=C(O)c1ccc(O)c2ncc(N3CCCC3)cc12 [Compound 14]

IC50 (JMJD2E): 1760 nM
SMILES: O=C(O)c1ccc(O)c2ncc(NC3CCNC3)cc12 (stereo not shown) [Compound 15]

IC50 (JMJD2E): 1170 nM
SMILES: N[C@@H]1CCN(c2cnc3c(O)ccc(C(=O)O)c3c2)C1 [Compound 16]

IC50 (JMJD2E; [5]): 4980 nM
SMILES: O=C(O)c1ccc(O)c2ncc(N3CCN(Cc4ccccc4)CC3)cc12 [Compound 18]

IC50 (JMJD2E; [5]): 4180 nM
SMILES: O=C(O)c1ccc(O)c2ncc(-c3ccc(N4CCOCC4)cc3)cc12 [Compound 19]

IC50 (JMJD2E; [5]): 5110 nM
SMILES: O=C(O)c1ccc(O)c2ncc(-c3cccc(N4CCOCC4)c3)cc12 [Compound 20]

IC50 (JMJD2E; [5]): 2100 nM
SMILES: O=C(O)c1ccc(O)c2ncc(NCC3CCCN(CCc4ccccc4)C3)cc12 (stereo not shown) [Compound 21]

IC50 (JMJD2E; [5]): 4660 nM
SMILES: O=C(O)c1ccc(O)c2ncc(N3CCCCC3CCc3ccccn3)cc12 (stereo not shown) [Compound 22]

IC50 (JMJD2E; [5]): 3610 nM
SMILES: O=C(O)c1ccc(O)c2ncc(-c3ccc(C(=O)N4CCNCC4)cc3)cc12 [Compound 23]

IC50 (JMJD2E; [5]): 4630 nM
SMILES: CN1CCN(C(=O)c2ccc(-c3cnc4c(O)ccc(C(=O)O)c4c3)cc2)CC1 [Compound 24]

IC50 (JMJD2E; [5]): 2080 nM
SMILES: O=C(O)c1ccc(O)c2ncc(N3CCCN(C4CCCC4)CC3)cc12 [Compound 26]

IC50 (JMJD2E; [5]): 1710 nM
SMILES: O=C(O)c1ccc(O)c2ncc(N3CCCN(CCCc4ccncc4)CC3)cc12 [Compound 27]
